Laboratory results from paper PMC11760092, “Pretreatment with serine protease inhibitors impairs Leishmania amazonensis survival on macrophages” (Parasites & Vectors, 2025).
pIC50: −log10 of the molar value.

Assays:
[1] = system: peritoneal macrophages from BALB/c mice; experiment: Cytotoxicity assay (MTT); type: cell-based; conditions: 72 h of incubation; MTT; interval in brackets
Procedure: To determinate the toxicity of the inhibitors on mammalian cells, peritoneal macrophages from BALB/c mice, obtained by peritoneal lavage, in concentration of 2 × 10^6 macrophages/mL, were adhered in 96-well culture plates overnight at 37 °C with 5% CO2. The inhibitors were then added in different concentrations and incubated for 72 h at 37 °C and 5% CO2. Cell viability was also assessed by the MTT method. Cytotoxic concentration of 50% of macrophages (CC50) values were calculated using GraPadPrism 8 software. Three independent experiments in triplicate were performed.

[2] = system: L. amazonensis in peritoneal macrophages; experiment: Promastigote pretreatment and infection of peritoneal macrophages; type: cell-based, Leishmania amazonensis; conditions: for entry of promastigotes into macrophages: promastigotes pretreated 1 h, 0 h after 4 h interaction
Procedure: Leishmania amazonensis-RFP promastigotes were pretreated with different concentrations of inhbitors during 1 h at 25 °C. The cells were washed with PBS and used to infect peritoneal macrophages from BALB/c mice (10:1 ratio), not pretreated or pretreated with 0.5 ng/mL IFN-γ overnight, in 24-well plates. After 4 h of interaction, the plates were washed with PBS and (1) scraped to remove attached cells and read using a spectrofluorimeter (time = 0 h) or (2) incubated at 33 °C with 5% CO2 for 24 h, 48 h, and 72 h for later scraping and reading (times = 24 h, 48 h, and 72 h). Three experiments were performed, each one with three replicates.
The same experiment was repeated, but using 13 mm glass coverslips in 24-well plates. The fixation with ethanol and staining with Giemsa were performed. Subsequently, the slides were examined in an optical microscope (Olympus BX53, Shinjuku, Tokyo, Japan) and photographed (Olympus DP73, Shinjuku, Tokyo, Japan).

[3] = system: Leishmania amazonensis-WT promastigotes; experiment: Antipromastigote assay (MTT); type: cell-based; conditions: for pIC50: 72 h of incubation, interval in brackets, read-out: Antileishmanial effect in Leishmania amazonensis IC50 Promastigote
Procedure: Leishmania amazonensis–WT promastigotes, in the logarithmic phase of growth, were transferred to 96-well culture plates (final concentration 2 × 10^6 cells/mL) and exposed to different concentrations of inhbitors during 72 h at 25 °C. The cell viability was evaluated by the 3-(4,5-dimethylthiazol-2-yl)-2,5 diphenyltetrazolium bromide (MTT) method (obtained from Sigma-Aldrich). The inhibitory concentration of 50% of parasite growth (IC50) values were calculated using GraphPad Prism 8 software […]. Three independent experiments in triplicate were performed. Amphotericin B (Cristália, São Paulo, SP, Brazil) was used as a reference drug.

[4] = system: L. amazonensis (RFP) amastigotes; experiment: Antiamastigote assay (RFP fluorescence, infected peritoneal macrophages); type: cell-based; conditions: 72 h of incubation; interval in brackets; read-out: Antileishmanial effect in Leishmania amazonensis IC50 Amastigote
Procedure: Peritoneal macrophages from BALB/c mice were obtained by peritoneal lavage and distributed in 24-well plates at 2 × 10^6 cells/mL in RPMI medium (Cultilab) containing 10% FBS and a 0.5% penicillin and streptomycin solution (complete RPMI). The plates were incubated for 1 h at 37 °C and 5% CO2, washed with phosphate-buffered saline (PBS), and then reincubated in complete RPMI medium overnight. The cells were washed again with PBS and infected with stationary growth phase L. amazonensis (RFP) promastigotes at a 10:1 ratio for 4 h at 33 °C. The plates were washed with PBS and the inhibitors were added at different concentrations and incubated for 72 h. After this time, each well was scraped to remove attached cells and the reading was taken with a spectrofluorimeter (FLx800, BioTek Instruments, Winooski, VT, USA) at 530 nm and 590 nm of excitation and emission, respectively. […] All assays were performed in triplicate and repeated three times. Results were calculated as the percentage of amastigote survival compared with the nontreated control group, and IC50 values were determined using GraphPad Prism 8 software.

[5] = system: Leishmania amazonensis-RFP promastigotes; experiment: Viability of promastigotes after 1 h of treatment with inhibitors; type: cell-based; conditions: 1 h treatment, washed; 0 h, 24 h, 48 h and 72 h of incubation
Procedure: Leishmania amazonensis-RFP promastigotes were treated with different concentrations of inhibitors during 1 h at 25 °C and were washed with PBS. Then, these cells had their viability determined by fluorescence analysis using a spectrofluorimeter (time = 0 h) and were also reincubated in complete RPMI medium for subsequent analysis of cell viability after 24 h, 48 h, and 72 h (times = 24 h, 48 h, and 72 h) by fluorescence analysis.

[6] = system: L. donovani promastigotes; design: method as in PMID 26040107; conditions: concentration not given; cited from earlier work
[7] = system: L. donovani serine proteases; design: method as in PMID 26040107; conditions: concentration not given; cited from earlier work
[8] = system: L. amazonensis promastigotes; design: method as in PMID 17726617; conditions: 100 µM; cited from earlier work
[9] = system: L. amazonensis serine proteases; design: method as in PMID 25583728; conditions: cited from earlier work
L. amazonensis = conditions: mice infected with L. amazonensis; cited from earlier work
[10] = system: L. amazonensis promastigotes and amastigotes; conditions: cited from earlier work

Compound	CC50 [1]	entry of promastigotes into macrophages [2]	permanence and survival of amastigotes within host cells ([2]; promastigotes pretreated 1 h with 200 µM or 6.25 µM, up to 72 h)	pIC50 [3]	pIC50 [4]	viability of promastigotes after 1 h of treatment, compared with the control [5]	survival of parasites within macrophages ([2]; promastigotes pretreated 1 h with 100 µM, 48 h and 72 h of infection)	inhibition of the parasite's viability ([3]; promastigotes, 6.25 µM)	cell viability of L. donovani promastigotes (reduction) [6]	inhibition of the proteolytic activity [7]	viability of L. amazonensis promastigotes [8]	inhibition of L. amazonensis serine proteases [9]	lesion size (L. amazonensis)	effect on promastigotes and amastigotes of L. amazonensis [10]
O=S(=O)(F)Cc1ccccc1 [PMSF]	269 µM	did not change the entry	did not alter the permanence and survival	< 3.70	< 3.70	did not change the viability	–	–	–	–	–	–	–	–
Cc1ccc(S(=O)(=O)N[C@@H](CCCCN)C(=O)CCl)cc1 [TLCK]	104 µM	occurred similarly to the control	–	4.28	3.85	did not change the viability	slightly reduced	around 10%	only did so after 15 h and 20 h	18%	did not reduce promastigote viability	–	–	–
epoxy-α-lapachone	–	–	–	–	–	–	–	–	–	–	–	inhibited L. amazonensis serine proteases	reduction of the lesion size	effective against promastigotes and amastigotes
